Test results: patent US20220279826A1, “OFF-FLAVOR SUPPRESSING AGENT” (AJINOMOTO CO., INC., priority 2019, published 2022)

What was measured:
[1] = Sensory evaluation in granular fava bean protein (Experimental Example 16); settings: Table 30
Protocol: Each compound shown in the following Table 30 was added to granular fava bean protein (manufactured by Schouten) so as to achieve the concentration (addition concentration) shown in the following Table 30 to prepare each evaluation sample.
(§1) Based on the following evaluation criteria, a panel of four experts determined by consensus the intensity of off-tastes (bitter taste, harsh taste, astringent taste) derived from fava bean protein in each evaluation sample, by comparison with granular fava bean protein without addition of any compound (negative control).

[2] = Sensory evaluation in soy protein hamburg steak (Experimental Example 17); settings: Table 32
Protocol: Of the materials shown in the following Table 31, the materials of category 1 were first mixed, and the materials of category 2 were further mixed. The obtained mixture was formed into a circular shape of about 100 g per piece, and then baked at 180° C. for 2 minutes and 30 seconds for each of the front and back sides on an iron plate to produce a soy protein hamburg steak. Here, the granular soy protein manufactured by FUJI OIL CO., LTD. was used.
Each compound shown in the following Table 32 was added to soy protein hamburg steak so as to achieve the concentration (addition concentration) shown in the following Table 32 to prepare each evaluation sample.
Based on the following evaluation criteria, a panel of five experts determined by consensus the intensity of off-tastes (bitter taste, harsh taste, astringent taste) derived from soy protein in each evaluation sample, by comparison with soy protein hamburg steak without addition of any compound (negative control).

[3] = Sensory evaluation in granular pea protein (Experimental Example 15); settings: Table 29
Protocol: Each compound shown in the following Table 29 was added to granular pea protein (manufactured by Roquette) so as to achieve the concentration (addition concentration) shown in the following Table 29 to prepare each evaluation sample.
as §1, with “pea” for “fava bean”

[4] = Sensory evaluation of off-taste suppressing effect in 0.8 wt % potassium chloride aqueous solution (Experimental Examples 1 and 2)
[5] = Sensory evaluation in 0.12 wt % aspartame aqueous solution (Experimental Example 12); settings: Table 26
Protocol: (§2) Each compound shown in the following Table 26 was added to a 0.12 wt % aspartame aqueous solution (an aqueous solution prepared by dissolving aspartame (0.12 parts by weight) in ion exchange water (99.88 parts by weight)) so as to achieve the concentration (addition concentration) shown in the following Table 26 to prepare each evaluation sample.
as §1, with “three” for “four”, “metallic” for “astringent”, “aspartame” for “fava bean protein”, “a 0.12 wt % aspartame aqueous solution” for “granular fava bean protein”

[6] = Sensory evaluation in 0.06 wt % acesulfame potassium aqueous solution (Experimental Example 10); settings: summary of Table 24
Protocol: as §2, with “24” for “26”, “0.06” for “0.12”, “acesulfame potassium” for “aspartame”, “acesulfame potassium (0.06” for “aspartame (0.12”, “in” for “in ion exchange”, “(99.94” for “(99.88”
(§3) Based on the following evaluation criteria, a panel of four experts determined by consensus the intensity of off-tastes (bitter taste) derived from acesulfame potassium in each evaluation sample, by comparison with a 0.06 wt % acesulfame potassium aqueous solution without addition of any compound (negative control).

[7] = Sensory evaluation in granular soy protein (Experimental Example 14); settings: text summary of Table 28
Protocol: Each compound shown in the following Table 28 was added to granular soy protein (manufactured by FUJI OIL CO., LTD.) so as to achieve the concentration (addition concentration) shown in the following Table 28 to prepare each evaluation sample.
as §1, with “soy” for “fava bean”

[8] = Sensory evaluation in sodium acetate aqueous solution (Experimental Example 18); settings: Table 33
Protocol: Each compound shown in the following Table 33 was added to an aqueous solution prepared by dissolving sodium acetate (1 part by weight) and acetic acid (0.3 parts by weight) in water (98.7 parts by weight) (hereinafter at times referred to as sodium acetate aqueous solution) so as to achieve the concentration (addition concentration) shown in the following Table 33 to prepare each evaluation sample.
as §1, with “sodium acetate” for “fava bean protein”, “a sodium acetate aqueous solution” for “granular fava bean protein”

[9] = Sensory evaluation in 0.15 wt % catechin aqueous solution (Experimental Example 9); settings: summary of Table 23
Protocol: as §2, with “23” for “26”, “0.15” for “0.12”, “catechin” for “aspartame”, “catechin (0.15” for “aspartame (0.12”, “(99.85” for “(99.88”
as §3, with “(bitter taste, rough taste, harsh” for “(bitter”, “catechin” for “acesulfame potassium”, “0.15” for “0.06”

[10] = 0.8 wt % potassium chloride aqueous solution, addition concentration 5 weight ppb (0.625 weight ppm with respect to potassium chloride)
[11] = 0.8 wt % potassium chloride aqueous solution, addition concentration 10 weight ppb (1.25 weight ppm with respect to potassium chloride)
[12] = 0.8 wt % potassium chloride aqueous solution, addition concentration 50 weight ppb (6.25 weight ppm with respect to potassium chloride)
[13] = 0.8 wt % potassium chloride aqueous solution, addition concentration 100 weight ppb (12.5 weight ppm with respect to potassium chloride)
[14] = in words, potassium chloride aqueous solutions, Tables 1 to 14
[15] = potassium chloride aqueous solutions, Tables 1 to 14

Row | SMILES | intensity of off-tastes (bitter taste, harsh taste, astringent taste) derived from fava bean protein [1] | intensity of off-tastes (bitter taste, harsh taste, astringent taste) derived from soy protein [2] | intensity of off-tastes (bitter taste, harsh taste, astringent taste) derived from pea protein [3] | off-taste suppressing effect ([4]; 0.8 wt % potassium chloride aqueous solution, addition concentration 1 weight ppb (0.125 weight ppm with respect to potassium chloride)) | off-taste suppressing effect [4, 10] | off-taste suppressing effect [4, 11] | off-taste suppressing effect [4, 12] | off-taste suppressing effect [4, 13] | off-taste suppressing effect [4, 14] | intensity of off-tastes (bitter taste, metallic taste, harsh taste, astringent taste) derived from potassium chloride [4, 15] | intensity of off-tastes (bitter taste, harsh taste, metallic taste) derived from aspartame [5] | intensity of off-tastes (bitter taste) derived from acesulfame potassium [6] | intensity of off-tastes (bitter taste, harsh taste, astringent taste) derived from soy protein [7] | intensity of off-tastes (bitter taste, harsh taste, astringent taste) derived from sodium acetate [8] | intensity of off-tastes (bitter taste, rough taste, harsh taste) derived from catechin [9] | off-taste suppressing effect ([4]; 0.8 wt % potassium chloride aqueous solution, addition concentration 500 weight ppb (62.5 weight ppm with respect to potassium chloride)) | off-taste suppressing effect ([4]; 0.8 wt % potassium chloride aqueous solution, addition concentration 1000 weight ppb (125 weight ppm with respect to potassium chloride)) | off-taste suppressing effect ([4]; 0.8 wt % potassium chloride aqueous solution, addition concentration 2000 weight ppb (250 weight ppm with respect to potassium chloride))
1 | CC1=C(O)C(=O)CC1 [cyclotene] | suppressed | suppressed | suppressed | + (intensity of the same level as potassium chloride aqueous solution with potassium chloride concentration of not less than 0.75 wt % and less than 0.8 wt %) | ++ (intensity of the same level as potassium chloride aqueous solution with potassium chloride concentration of not less than 0.7 wt % and less than 0.75 wt %) | +++ (intensity of the same level as potassium chloride aqueous solution with potassium chloride concentration of not less than 0.65 wt % and less than 0.7 wt %) | +++ (intensity of the same level as potassium chloride aqueous solution with potassium chloride concentration of not less than 0.65 wt % and less than 0.7 wt %) | ++ (intensity of the same level as potassium chloride aqueous solution with potassium chloride concentration of not less than 0.7 wt % and less than 0.75 wt %) | high | decreased | suppressed | suppressed | suppressed | suppressed | suppressed | – | – | –
2 | O=Cc1ccco1 [furfural, Furfural] | suppressed | suppressed | suppressed | – | + (intensity of the same level as potassium chloride aqueous solution with potassium chloride concentration of not less than 0.75 wt % and less than 0.8 wt %) | +++ (intensity of the same level as potassium chloride aqueous solution with potassium chloride concentration of not less than 0.65 wt % and less than 0.7 wt %) | +++ (intensity of the same level as potassium chloride aqueous solution with potassium chloride concentration of not less than 0.65 wt % and less than 0.7 wt %) | + (intensity of the same level as potassium chloride aqueous solution with potassium chloride concentration of not less than 0.75 wt % and less than 0.8 wt %) | high | decreased | suppressed | suppressed | suppressed | suppressed | suppressed | – | – | –
3 | CCC(=O)O [propionic acid] | suppressed | suppressed | suppressed | – | – | – | – | + (intensity of the same level as potassium chloride aqueous solution with potassium chloride concentration of not less than 0.75 wt % and less than 0.8 wt %) | high | decreased | suppressed | suppressed | suppressed | suppressed | suppressed | ++ (intensity of the same level as potassium chloride aqueous solution with potassium chloride concentration of not less than 0.7 wt % and less than 0.75 wt %) | ++ (intensity of the same level as potassium chloride aqueous solution with potassium chloride concentration of not less than 0.7 wt % and less than 0.75 wt %) | ++ (intensity of the same level as potassium chloride aqueous solution with potassium chloride concentration of not less than 0.7 wt % and less than 0.75 wt %)
